Measurements taken from paper PMC6290777, “Inhalation of the prodrug PI3K inhibitor CL27c improves lung function in asthma and fibrosis” (Nature Communications, 2018).

Experiments:
[1] = test system: bleomycin-induced lung fibrosis; assay: Bleomycin-induced lung injury and fibrosis in mice; format: in vivo, C57BL/6J mice
Procedure: Eight-to-ten-week-old C57BL/6J males were used in bleomycin-induced lung injury and fibrosis model[10],[51]. Briefly, a single 40 µl injection containing 3.75 or 2 mg/kg of bleomycin sulfate (Sigma Aldrich-MERCK #B1141000) diluted in PBS or PBS only (vehicle) was instilled intratracheally. […]
Levels of hydroxyproline in lung tissues were measured using the Hydroxyproline Assay kit (Sigma-Audrich, St. Louis, MO, USA) according to the manufacturer’s instructions. Briefly, 10 mg of pulverized frozen lungs homogenized in 100 µL of concentrated hydrochloric acid (HCl, 12 M), and hydrolyzed at 120 °C for 3 h. Then, 5 µL of each sample in triplicate were used to the assay. […] The absorbance was obtained at 560 nm. The final results are expressed as concentration of hydroxyproline in µg/mL.
The left lung was removed and fixed in 4% neutral phosphate-buffered formalin (pH 7.4)[10]. The tissues were dehydrated gradually in ethanol, embedded in paraffin, cut into 4 µm sections, stained with H&E, Gomori’s trichrome and periodic acid schiff (PAS), and examined under light microscopy by a pathologist in a double blinded manner. Images of lung sections were captured with a digital camera (Optronics DEI-470) connected to a microscope (Olympus IX70) with a magnification of ×40 or ×100. Inflammation was scored according to modification of existing protocols[53] and to the histopathology criteria reported in Supplementary Table 4. […]
For quantitative measurements, total RNA was extracted from lung tissues using the High Pure RNA isolation kit (Invitrogen, Life Technologies, Paisley, UK) and reverse-transcribed with the Superscript first-strand synthesis system kit (Invitrogen, Life Technologies, Paisley, UK). Specific mRNA sequences were quantified by real-time PCR with primer/probe combinations based on the Roche Universal ProbeLibrary Set, Mouse (Tgfb1 probe: #72, Ctgf probe: #71, Col1a1 probe: #15 and Mmp2 probe #49). Primer sequences are listed in Supplementary Table 5.

[2] = test system: in vitro differentiated Treg; assay: Treg viability assessment; format: cell-based, C57BL/6 mice; conditions: 72 h; tested 1, 3, 10 or 30 uM
Procedure: Cells were obtained from Lymph nodes and spleen from naive C57BL/6. Cells were then purified with CD4 T cell isolation Kit and with CD25 biotin and microbeads anti-biotin. Purified cells were cultured for 72 h in a 96-wells plate with anti-CD3/CD28 coated (1 ug/ml), TGF-B (1 ng/ml), or Cl27C (1, 3, 10 or 30 uM). After 72 h, the cells were harvested and stained with PBS (2% Bovine serum fetal) and anti-CD4 and fixable viability dye for 10 min. Cells were then fixed and permeabilized with intracellular fixation and permeabilization buffer set (eBioscience). Anti-FoxP3 was used for […]. After the staining, the cells were acquired with FACS VERSE machine and analyzed by FlowJo X software. […]
obtained at 200 × magnification were analyzed using the software Image -J (NIH, USA). Results were expressed as extracellular matrix deposition area (pixels). […]
Akt phosphorylation was measured by western blot as described in the “Western blot analysis” in […]
Cells were obtained from Lymph nodes and spleen from naive C57Bl/6J and purified with CD4 T cell isolation Kit (Miltenyi Biotec #130-104-454) and with CD25 biotin (eBioscience #13-0252-81) and microbeads anti-biotin (Miltenyi Biotec #130-090-485). […] Positive stained cells were analyzed with FlowJo X software after removal of doublets events and debris through FSC-A/FSC-H gating.

[3] = late treatment, day 17 to day 27
[4] = moderate model, bleomycin 2 mg/kg, aerosolized CL27c 2 mg/ml
[5] = moderate model, therapeutic aerosolized CL27c
[6] = severe model, bleomycin 3.75 mg/kg

Structure (SMILES): COC(=O)c1cccc(Cn2cc(-c3cccc4c(=O)cc(N5CCOCC5)[nH]c34)nn2)c1 [CL27c]
- Akt phosphorylation in lung protein extracts and sections ([1]; bleomycin model): blunted the increase of Akt phosphorylation
- lung function [1, 3]: improved lung function
- mortality [1, 3]: significantly blunts mortality
- fibrotic collagen deposition ([1]; late treatment, day 17 to day 27 after bleomycin 2 mg/kg): still effective in reducing fibrotic collagen deposition
- lung elasticity (pulmonary compliance) restored, relative to controls ([1]; moderate model): 75 % of controls
- lung resistance ([1]; moderate model): reduce the gain in lung resistance almost to the level of healthy mice
- survival ([1]; moderate model, 22 days after instillation, bleomycin alone 50% mortality): 100%
- fibrotic remodeling (Ashcroft score, collagen content) ([1]; moderate model, bleomycin 2 mg/kg): significantly reduce fibrotic remodeling
- abundance of active TGF-β1 [1, 4]: significantly decreased the abundance of active TGF-β1
- mRNA levels of Tgfb1, Ctgf, Col1a1, Mmp2 [1, 4]: attenuated mRNA levels of Tgfb1
- neutrophil-derived MPO levels in the lungs [1, 4]: markedly reduced
- airway inflammation (BALF cells) ([1]; moderate model, bleomycin 2 mg/kg, aerosolized CL27c 2 mg/ml day 10 to 21): markedly reduced airway inflammation
- histopathological inflammation score ([1]; moderate model, day 22): significantly attenuated in airways, vasculature, and parenchyma
- TLC, inspiratory capacity, forced vital capacity, and FEV [1, 5]: significant recovery back to normal levels
- pressure–volume curve [1, 5]: significantly improved the pressure–volume curve
- hydroxyproline deposition in lungs [1, 6]: significantly decreased hydroxyproline deposition in lungs
- infiltration of macrophages and neutrophils [1, 6]: reduced infiltration of either macrophages or neutrophils
- mortality within 21 days ([1]; severe model, bleomycin 3.75 mg/kg, CL27c could not protect): 100%
- concentration with toxic effects on Treg viability [2]: 30 µM
